Values quoted from earlier work in patent US10632442B2, “Apparatus for a mass production of monodisperse biodegradable polymer-based microspheres and a multi-channel forming device incorporatable therein” (INVENTAGE LAB, INC., priority 2016, dated 2020).

Details: in vivo

CO/N=C1\C[C@]2(C[C@@H]3C[C@@H](C/C=C(\C)C[C@@H](C)/C=C/C=C4\CO[C@@H]5[C@H](O)C(C)=C[C@@H](C(=O)O3)[C@]45O)O2)O[C@H](/C(C)=C/C(C)C)[C@H]1C [Moxidectin]
AUC: 217 ng·days/mL | Cmax: 5.1 ng/mL | Tmax: 7 to 10 days | T½: 35 days
